# Reference: PubChem BioAssay AID200 (DTP/NCI, 2004)
# Where “and” joins values, the source holds several entries; their conditions need not be identical. Equal entries are not always repeated. Inconclusive results and toxic doses are left out.
# Test system: B6C3F1 mice, B16 melanoma ip, median survival T/C
# Assay: NCI In Vivo Anticancer Drug Screen. Data for tumor model B16 Melanoma (intraperitoneal) in B6C3F1 mice
# Details: endpoint: median survival time, schedule: Q01DX009 (ip), higher = longer survival
# Summary of the method: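 Antitumor effect was judged in mice with transplanted tumors by dividing the treated group's survival measure by that of vehicle controls.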
# [1] = dose: 12.5 mg/kg/injection, vehicle: saline
# [2] = dose: 25.0 mg/kg/injection, vehicle: saline
# [3] = dose: 100.0 mg/kg/injection, vehicle: saline
# [4] = dose: 200.0 mg/kg/injection, vehicle: saline
# [5] = dose: 6.25 mg/kg/injection, vehicle: saline
# [6] = dose: 12.5 mg/kg/injection, vehicle: Klucel (hydroxypropylcellulose) (HPC)
# [7] = dose: 25.0 mg/kg/injection, vehicle: Klucel (hydroxypropylcellulose) (HPC)
# [8] = dose: 50.0 mg/kg/injection, vehicle: Klucel (hydroxypropylcellulose) (HPC)
# [9] = dose: 100.0 mg/kg/injection, vehicle: Klucel (hydroxypropylcellulose) (HPC)
# [10] = dose: 200.0 mg/kg/injection, vehicle: Klucel (hydroxypropylcellulose) (HPC)
# [11] = dose: 400.0 mg/kg/injection, vehicle: Klucel (hydroxypropylcellulose) (HPC)
# [12] = dose: 6.25 mg/kg/injection, vehicle: saline with Tween-80
# [13] = dose: 12.5 mg/kg/injection, vehicle: saline with Tween-80
# [14] = dose: 25.0 mg/kg/injection, vehicle: saline with Tween-80
# [15] = dose: 50.0 mg/kg/injection, vehicle: saline with Tween-80
# [16] = dose: 100.0 mg/kg/injection, vehicle: saline with Tween-80
# [17] = dose: 200.0 mg/kg/injection, vehicle: saline with Tween-80
# [18] = dose: 400.0 mg/kg/injection, vehicle: saline with Tween-80
# [19] = dose: 50.0 mg/kg/injection, vehicle: saline
smiles,measurement,setting,value
C1OC1CO[C@@H]1CO[C@H]2[C@@H]1OC[C@H]2OCC1CO1 (stereo not given in full),T/C,[1],111 % of control
same,T/C,"dose: 12.5 mg/kg/injection, vehicle: suspension in saline",111 % of control
same,T/C,[2],115 % of control
same,T/C,"dose: 25.0 mg/kg/injection, vehicle: suspension in saline",111 % of control
same,T/C,[3],171 % of control and 182 % of control
same,T/C,"dose: 100.0 mg/kg/injection, vehicle: suspension in saline",153 % of control
same,T/C,[4],220 % of control and 235 % of control
same,T/C,"dose: 200.0 mg/kg/injection, vehicle: suspension in saline",205 % of control
O=[N+]([O-])c1c(O)c(CNCCCO)cc(CNCCCO)c1O,T/C,[5],102 % of control
same,T/C,[1],102 % of control
C=C(NC(=O)C(=C)NC(=O)c1csc(C2=NC3c4csc(n4)C4NC(=O)c5csc(n5)C(C(C)(O)C(C)O)NC(=O)C5CSC(=N5)/C(=C/C)NC(=O)C(C(C)O)NC(=O)c5csc(n5)C3(CC2)NC(=O)C(C)NC(=O)C(=C)NC(=O)C(C)NC(=O)C(C(C)CC)NC2C=Cc3c(C(C)O)cc(nc3C2O)C(=O)OC4C)n1)C(N)=O (stereo not given),T/C,[6],116 % of control
same,T/C,[7],104 % of control
same,T/C,[8],105 % of control
same,T/C,[9],107 % of control
same,T/C,[10],96 % of control
same,T/C,[11],99 % of control
Nc1nc2nc[nH]c2c(=O)[nH]1,T/C,[12],116 % of control
same,T/C,[13],105 % of control
same,T/C,[14],104 % of control
same,T/C,[15],102 % of control
same,T/C,[16],90 % of control
O=C(CCCN1CCC(C(O)c2ccc(F)cc2)CC1)c1ccc(F)cc1 (stereo not given),T/C,"dose: 1.56 mg/kg/injection, vehicle: saline with Tween-80",92 % of control
same,T/C,"dose: 3.12 mg/kg/injection, vehicle: saline with Tween-80",96 % of control
same,T/C,[12],103 % of control
same,T/C,[13],92 % of control
O=C(NC1CCCCC1)OCc1c(COC(=O)NC2CCCCC2)c(-c2ccc(Cl)c(Cl)c2)n2c1CCC2,T/C,[13],190 % of control
same,T/C,[14],162 % of control and 222 % of control
same,T/C,[15],199 % of control and 235 % of control
same,T/C,[16],203 % of control and 316 % of control
same,T/C,[17],181 % of control and 214 % of control
same,T/C,[18],112 % of control
O=C1N[C@H]2[C@H](O)[C@H](O)[C@@H](O)[C@H](O)[C@@H]2c2cc3c(c(O)c21)OCO3,T/C,"dose: 1.5 mg/kg/injection, vehicle: saline + alcohol",100 % of control
same,T/C,"dose: 1.56 mg/kg/injection, vehicle: saline + alcohol",108 % of control
same,T/C,"dose: 3.0 mg/kg/injection, vehicle: saline + alcohol",103 % of control
same,T/C,"dose: 6.0 mg/kg/injection, vehicle: saline + alcohol",114 % of control
same,T/C,"dose: 6.25 mg/kg/injection, vehicle: saline + alcohol",110 % of control
NC1=NCN(C2OC(CO)C(O)C2O)C(=O)N1 (stereo not given),T/C,[19],108 % of control
same,T/C,[3],105 % of control
Cc1cc2c(C(C)C)c(O)c(O)c(C=NCCO)c2c(O)c1-c1c(C)cc2c(C(C)C)c(O)c(O)c(C=NCCO)c2c1O,T/C,[14],109 % of control and 111 % of control and 103 % of control
same,T/C,[15],108 % of control and 109 % of control and 91 % of control
same,T/C,[16],109 % of control and 121 % of control and 101 % of control
same,T/C,[17],114 % of control and 120 % of control
same,T/C,[18],153 % of control
O=C/C=C/c1cccc([N+](=O)[O-])c1,T/C,[14],107 % of control
same,T/C,[15],116 % of control
same,T/C,[16],118 % of control
same,T/C,[17],124 % of control
CC(O)C(NC(=O)OC(C)(C)C)C(=O)O (stereo not given),T/C,[2],86 % of control and 100 % of control
same,T/C,[19],108 % of control and 106 % of control
same,T/C,[3],108 % of control and 100 % of control
same,T/C,[4],95 % of control
COC(=O)Nc1cn2ccc(Sc3ccccc3)cc2n1,T/C,[8],122 % of control
same,T/C,[9],101 % of control
COc1ccc(C[C@H](N)C(=O)NC2C(CO)OC(n3cnc4c(N(C)C)ncnc43)C2O)cc1 (stereo not given in full),T/C,"dose: 5.0 mg/kg/injection, vehicle: saline",103 % of control and 105 % of control
same,T/C,"dose: 10.0 mg/kg/injection, vehicle: saline",114 % of control and 106 % of control
same,T/C,"dose: 20.0 mg/kg/injection, vehicle: saline",112 % of control and 116 % of control
same,T/C,"dose: 40.0 mg/kg/injection, vehicle: saline",118 % of control and 122 % of control
COc1ccc2c3c1OC1C(=O)CCC4C(C2)N(C)CCC314 (stereo not given),T/C,"dose: 31.0 mg/kg/injection, vehicle: saline",99 % of control
O=C1C=C(N2CC2)C(=O)C(N2CC2)=C1N1CC1,T/C,"dose: 6.25 micrograms/kg/injection, vehicle: saline",111 % of control
same,T/C,"dose: 12.5 micrograms/kg/injection, vehicle: saline",95 % of control
same,T/C,"dose: 25.0 micrograms/kg/injection, vehicle: saline",113 % of control
same,T/C,"dose: 50.0 micrograms/kg/injection, vehicle: saline",165 % of control
same,T/C,"dose: 100.0 micrograms/kg/injection, vehicle: saline",157 % of control
CONc1ccn(C2OC(CO)C(O)C2O)c(=O)n1 (stereo not given),T/C,[1],92 % of control and 98 % of control
same,T/C,[2],101 % of control and 102 % of control
same,T/C,[19],103 % of control and 104 % of control
same,T/C,[3],91 % of control and 106 % of control
same,T/C,[4],113 % of control and 91 % of control
same,T/C,"dose: 400.0 mg/kg/injection, vehicle: saline",89 % of control and 94 % of control
Nc1nc(N)c2cc(S(=O)(=O)c3ccccc3)ccc2n1,T/C,[14],88 % of control
same,T/C,[15],103 % of control and 105 % of control
same,T/C,[17],153 % of control and 171 % of control
Clc1ccc(CN2COc3c(ccc4cccnc34)C2)cc1Cl,T/C,[13],102 % of control
same,T/C,[14],109 % of control
same,T/C,[15],92 % of control
O=c1[nH]cnc2n[nH]nc12,T/C,[6],107 % of control
same,T/C,[7],97 % of control
same,T/C,[8],92 % of control
same,T/C,[9],90 % of control
same,T/C,[10],97 % of control
same,T/C,[11],90 % of control
NC(CCCNc1cccc(O)c1)C(=O)O (stereo not given),T/C,"dose: 75.0 mg/kg/injection, vehicle: saline",104 % of control
same,T/C,[3],87 % of control
CCC1OCC(C(Cl)CCl)O1 (stereo not given),T/C,[7],105 % of control
same,T/C,[8],96 % of control
same,T/C,[9],91 % of control
same,T/C,[10],98 % of control
NC(Cc1ccc(O)cc1)C(=O)O (stereo not given),T/C,[13],102 % of control
same,T/C,[14],113 % of control
same,T/C,[8],120 % of control
same,T/C,[15],113 % of control
same,T/C,[9],99 % of control
same,T/C,[16],103 % of control
same,T/C,[10],109 % of control
same,T/C,[17],98 % of control
same,T/C,[11],96 % of control
same,T/C,[18],103 % of control
O=c1c(O)c(O)c1=O.[NH2-].[NH2-].[NH2-].[NH2-].[NH2-].[Ru+5],T/C,"dose: 3.12 mg/kg/injection, vehicle: saline",110 % of control
same,T/C,"dose: 3.75 mg/kg/injection, vehicle: saline",104 % of control
same,T/C,[5],120 % of control
same,T/C,"dose: 10.42 mg/kg/injection, vehicle: saline",122 % of control
same,T/C,[2],87 % of control
Nc1c(/C=C/c2cc3cc(C4=NCCN4)ccc3o2)[nH]c2cc(C3=NCCN3)ccc12,T/C,"dose: 1.5 mg/kg/injection, vehicle: Klucel (hydroxypropylcellulose) (HPC)",108 % of control
same,T/C,"dose: 3.0 mg/kg/injection, vehicle: Klucel (hydroxypropylcellulose) (HPC)",98 % of control
same,T/C,"dose: 6.0 mg/kg/injection, vehicle: Klucel (hydroxypropylcellulose) (HPC)",95 % of control
same,T/C,"dose: 12.0 mg/kg/injection, vehicle: Klucel (hydroxypropylcellulose) (HPC)",98 % of control
same,T/C,[6],90 % of control
same,T/C,"dose: 24.0 mg/kg/injection, vehicle: Klucel (hydroxypropylcellulose) (HPC)",90 % of control
same,T/C,[7],89 % of control
CCCOC(=O)c1ccc(O)cc1,T/C,[13],103 % of control
same,T/C,[14],109 % of control
same,T/C,[15],109 % of control
same,T/C,[16],89 % of control
same,T/C,[17],107 % of control
same,T/C,[18],100 % of control
Cc1ccc2c(c1)N=C(Nc1ccccc1)N=S2(C)=O (stereo not given),T/C,[12],101 % of control
same,T/C,[13],87 % of control
same,T/C,[14],102 % of control
same,T/C,[15],96 % of control
same,T/C,[16],87 % of control
same,T/C,[17],90 % of control
CCCC(C(=O)OCCN1CCCC12CCCCC2)C1CCCC1 (stereo not given),T/C,[1],105 % of control
same,T/C,[2],91 % of control
same,T/C,[19],91 % of control
COC1C(/C=C/C(C)=O)OC2OC(C)(C)OC21 (stereo not given),T/C,[5],92 % of control and 94 % of control and 100 % of control
same,T/C,[1],93 % of control and 97 % of control and 98 % of control
same,T/C,[2],91 % of control and 96 % of control and 101 % of control
same,T/C,[19],108 % of control and 87 % of control and 101 % of control
same,T/C,[3],93 % of control and 103 % of control and 104 % of control
same,T/C,[4],112 % of control
